# Results published in patent publication US12171834B2, “Compositions and methods for inhibiting the activity of LAR family phosphatases” (CASE WESTERN RESERVE UNIVERSITY, priority 2012, dated 2024).
# Several values for one entry are separate records, joined by “and”; a condition that tells them apart may be missing. Equal values may be shown once.
# Columns and labels:
# [1] = biological target: PTPσ (Homo sapiens, UniProt Q13332); assay: pull-down assays, wedge domain with PTPσ; format: binding
# Chain of PTPσ (Q13332 30-1948): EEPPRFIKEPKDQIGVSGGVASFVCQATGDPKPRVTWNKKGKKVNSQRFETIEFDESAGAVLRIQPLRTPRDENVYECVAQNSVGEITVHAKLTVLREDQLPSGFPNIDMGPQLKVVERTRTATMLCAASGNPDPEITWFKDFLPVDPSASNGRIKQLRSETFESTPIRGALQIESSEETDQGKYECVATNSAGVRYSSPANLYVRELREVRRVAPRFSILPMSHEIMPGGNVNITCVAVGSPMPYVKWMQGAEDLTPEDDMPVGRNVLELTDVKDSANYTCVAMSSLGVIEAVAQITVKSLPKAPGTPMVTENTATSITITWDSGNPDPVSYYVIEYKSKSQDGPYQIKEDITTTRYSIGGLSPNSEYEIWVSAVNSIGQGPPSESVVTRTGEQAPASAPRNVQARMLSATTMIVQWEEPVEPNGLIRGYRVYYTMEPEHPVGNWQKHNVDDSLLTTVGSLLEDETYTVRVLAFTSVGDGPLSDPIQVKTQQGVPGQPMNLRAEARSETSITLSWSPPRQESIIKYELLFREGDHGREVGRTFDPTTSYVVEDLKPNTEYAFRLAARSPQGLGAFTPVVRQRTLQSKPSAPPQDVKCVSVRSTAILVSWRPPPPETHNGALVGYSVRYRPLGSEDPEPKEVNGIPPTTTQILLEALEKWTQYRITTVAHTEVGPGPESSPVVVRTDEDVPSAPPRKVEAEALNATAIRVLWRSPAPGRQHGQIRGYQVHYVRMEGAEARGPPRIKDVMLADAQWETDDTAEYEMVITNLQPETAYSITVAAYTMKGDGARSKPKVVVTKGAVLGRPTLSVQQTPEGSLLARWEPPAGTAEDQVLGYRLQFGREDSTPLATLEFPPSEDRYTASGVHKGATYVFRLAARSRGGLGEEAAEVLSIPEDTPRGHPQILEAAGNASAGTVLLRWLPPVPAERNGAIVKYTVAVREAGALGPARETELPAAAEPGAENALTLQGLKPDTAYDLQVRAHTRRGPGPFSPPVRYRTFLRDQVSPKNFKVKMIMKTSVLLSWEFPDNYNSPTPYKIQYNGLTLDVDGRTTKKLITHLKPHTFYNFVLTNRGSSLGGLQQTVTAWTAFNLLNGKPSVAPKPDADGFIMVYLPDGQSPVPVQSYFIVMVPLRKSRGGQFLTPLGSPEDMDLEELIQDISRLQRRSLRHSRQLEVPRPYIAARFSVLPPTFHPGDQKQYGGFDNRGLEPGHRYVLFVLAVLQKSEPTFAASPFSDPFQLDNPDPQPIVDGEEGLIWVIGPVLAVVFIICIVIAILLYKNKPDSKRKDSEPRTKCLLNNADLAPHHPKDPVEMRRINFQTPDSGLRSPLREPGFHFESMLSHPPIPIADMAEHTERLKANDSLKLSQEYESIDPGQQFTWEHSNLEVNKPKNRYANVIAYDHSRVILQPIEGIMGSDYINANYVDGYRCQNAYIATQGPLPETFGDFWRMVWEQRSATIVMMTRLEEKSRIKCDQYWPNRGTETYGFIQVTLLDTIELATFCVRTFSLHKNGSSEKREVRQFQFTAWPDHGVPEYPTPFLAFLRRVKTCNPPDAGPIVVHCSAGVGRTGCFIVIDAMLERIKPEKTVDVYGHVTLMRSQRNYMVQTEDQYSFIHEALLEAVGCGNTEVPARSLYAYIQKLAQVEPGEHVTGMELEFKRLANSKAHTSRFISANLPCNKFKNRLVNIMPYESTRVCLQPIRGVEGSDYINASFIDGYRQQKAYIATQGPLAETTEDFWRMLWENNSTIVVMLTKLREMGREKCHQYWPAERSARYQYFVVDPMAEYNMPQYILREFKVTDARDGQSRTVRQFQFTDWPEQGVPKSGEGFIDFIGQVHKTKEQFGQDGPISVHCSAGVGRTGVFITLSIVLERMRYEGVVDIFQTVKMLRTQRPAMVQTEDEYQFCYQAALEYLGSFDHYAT
# [2] = biological target: full length LAR (Homo sapiens, UniProt P10586); assay: pull-down assays, wedge domain with full length LAR; format: binding
# Chain of full length LAR (P10586 30-1907, species assumed): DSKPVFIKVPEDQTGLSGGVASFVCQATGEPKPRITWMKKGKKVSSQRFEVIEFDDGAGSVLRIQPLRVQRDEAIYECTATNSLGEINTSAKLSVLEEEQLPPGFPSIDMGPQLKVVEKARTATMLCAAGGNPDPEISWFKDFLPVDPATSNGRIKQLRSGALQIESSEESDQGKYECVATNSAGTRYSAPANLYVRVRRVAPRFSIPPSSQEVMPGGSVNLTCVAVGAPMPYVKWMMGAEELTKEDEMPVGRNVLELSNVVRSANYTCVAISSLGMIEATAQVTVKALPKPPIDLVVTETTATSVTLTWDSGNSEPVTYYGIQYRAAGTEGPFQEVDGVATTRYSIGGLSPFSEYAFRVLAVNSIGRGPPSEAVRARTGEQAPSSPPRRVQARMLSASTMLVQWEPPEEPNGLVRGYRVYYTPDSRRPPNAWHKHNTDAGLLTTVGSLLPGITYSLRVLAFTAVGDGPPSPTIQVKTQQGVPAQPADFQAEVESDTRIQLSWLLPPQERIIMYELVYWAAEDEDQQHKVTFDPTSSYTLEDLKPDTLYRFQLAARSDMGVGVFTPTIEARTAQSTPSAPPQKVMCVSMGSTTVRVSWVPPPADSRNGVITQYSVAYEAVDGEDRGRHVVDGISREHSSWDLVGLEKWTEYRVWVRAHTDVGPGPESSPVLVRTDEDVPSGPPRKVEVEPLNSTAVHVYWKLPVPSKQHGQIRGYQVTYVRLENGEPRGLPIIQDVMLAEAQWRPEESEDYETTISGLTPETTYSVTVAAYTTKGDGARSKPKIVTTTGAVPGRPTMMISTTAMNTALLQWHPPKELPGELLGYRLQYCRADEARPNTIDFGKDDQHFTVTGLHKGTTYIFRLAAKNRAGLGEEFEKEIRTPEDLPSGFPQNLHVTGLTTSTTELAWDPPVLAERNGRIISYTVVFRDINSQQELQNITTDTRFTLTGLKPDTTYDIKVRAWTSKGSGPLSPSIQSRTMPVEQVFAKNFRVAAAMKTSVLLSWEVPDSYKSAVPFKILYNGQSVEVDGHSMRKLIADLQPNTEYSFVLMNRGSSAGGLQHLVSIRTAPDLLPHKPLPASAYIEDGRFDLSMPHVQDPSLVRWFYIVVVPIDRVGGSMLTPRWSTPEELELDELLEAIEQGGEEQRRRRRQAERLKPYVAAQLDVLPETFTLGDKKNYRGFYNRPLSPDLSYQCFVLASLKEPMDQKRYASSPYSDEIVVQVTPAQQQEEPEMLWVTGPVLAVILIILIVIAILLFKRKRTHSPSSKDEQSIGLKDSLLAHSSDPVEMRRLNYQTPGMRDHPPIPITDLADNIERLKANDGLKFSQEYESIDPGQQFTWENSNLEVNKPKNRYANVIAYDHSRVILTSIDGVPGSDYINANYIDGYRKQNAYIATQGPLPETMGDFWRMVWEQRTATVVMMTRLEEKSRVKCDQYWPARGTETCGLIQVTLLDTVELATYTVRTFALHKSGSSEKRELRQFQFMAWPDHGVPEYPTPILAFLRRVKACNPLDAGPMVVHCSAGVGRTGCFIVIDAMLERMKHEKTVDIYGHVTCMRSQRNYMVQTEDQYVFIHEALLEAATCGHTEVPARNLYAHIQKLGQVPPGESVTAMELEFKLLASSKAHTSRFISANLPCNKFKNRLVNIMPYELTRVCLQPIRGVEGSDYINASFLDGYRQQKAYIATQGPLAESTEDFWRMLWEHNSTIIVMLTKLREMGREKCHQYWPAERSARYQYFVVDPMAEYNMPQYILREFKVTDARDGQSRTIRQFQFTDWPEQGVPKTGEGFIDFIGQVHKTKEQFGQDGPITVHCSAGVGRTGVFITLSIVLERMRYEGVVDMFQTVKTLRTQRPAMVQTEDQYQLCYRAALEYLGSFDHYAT
# [3] = system: contusive spinal cord injury in adult female Sprague-Dawley rats; assay: grid-walk test after spinal cord injury; format: in vivo, rat; conditions: 12 weeks after spinal cord injury; for foot faults in the grid walk test versus vehicle: vehicle 6 foot-faults per meter
# Protocol: (§1) This Example describes methods of generating a moderate/severe contusive spinal cord injury with the Infinite Horizon device in adult female Sprague-Dawley rats for spinal cord injury (SCI) assays used in Examples 5-8. Briefly, rats were deeply anesthetized with a cocktail of ketamine/xylazine. Once under, the back was shaved and sterilized with Iodine and ethanol. Using a dorsal entry, the […] vertebrae 7-10 were exposed by a skin incision and at segments 8 and 9 a laminectomy was performed to expose the intact spinal cord. The spinal column and cord were stabilized in a stereotaxic frame prior to contusive impact. Finally, rats underwent a 250 kd Infinite Horizon contusion centered at the midline with no dwell time. Following muscle suturing and skin stapling, the animals were placed on a 37° C. hot pad and allowed ample access to food and water upon awakening from surgery. Pain was monitored, and animals in distress received a low dose of Marcaine at the injection site. Saline and Gentamycin (antibiotic) were given for 5 days post-surgery to prevent bladder infections. This experiment was performed start to finish 3 times. N−=15 ISP, N=11 vehicle and N=6 ILP.
# (§2) Animals were randomly divided into three groups, vehicle control, ISP, or ILP. Lyophilized ISP or ILP peptide was first dissolved in sterile water at a concentration of 2.5 mM. To create individual treatments for each animal, the peptide was further diluted to a concentration of 5 μM in a vehicle solution of 5% DMSO in sterile saline. 25 ml of each treatment (ILP, ISP or vehicle) was alliquoted into 50 individual Eppendorf tubes, each containing 500 μl. The drugs were stored at −20 and thawed immediately prior to use. […]
# Animals were allowed to freely roam on a wire grid (100 cm×75 cm, with 1 cm^2 gaps in the wire) 12 weeks after spinal cord injury. While an overhead camera tracked and calculated the total distance traveled (Ethovision), the number of foot-faults was counted manually by a blinded observer. […]
# [4] = system: contusive spinal cord injury in adult female Sprague-Dawley rats; assay: Basso, Beattie and Bresnahan (BBB) scale for post-SCI locomotion; format: in vivo, rat; conditions: for BBB recovery over the course of the next 10 weeks: after 2 weeks post injury; for BBB recovery over the course of the next 10 weeks / average BBB score: 5 μM, 500 μl subcutaneously daily
# Protocol: as §1
# (§3) Animals were randomly divided into three groups, vehicle control, ISP, or ILP. Lyophilized ISP or ILP peptide was first dissolved in sterile water at a concentration of 2.5 mM. To create individual treatments for each animal, the peptide was further diluted to a concentration of 5 μM in a vehicle solution of 5% DMSO in sterile saline. 25 ml of each treatment (ILP, ISP or vehicle) was alliquoted into 50 individual Eppendorf tubes, each containing 500 μl. The drugs were stored at −20 and thawed immediately prior to use. Each animal received 500 μl of either vehicle, 5 μM ISP or 5 μM ILP subcutaneously into the back above the lesion each day, starting 1 day after injury and lasting 7 weeks (49 treatments, 11 μg/rat/day).
# Animals were allowed to freely roam on a table-top for three minutes while their hindlimb movements and locomotor patterns were being scored by a blinded observer according to the Basso, Beattie and Bresnahan scale for post-SCI locomotion (Basso et al, 1995). Behavior was performed at post injury days 1, 4, 7 and then weekly for 10 additional weeks. Statistical analysis was conducted by repeated measures 2 way Anova.
# [5] = system: adult dissociated dorsal root ganglia neurons on gradients of CSPG; assay: spot assay: processes crossing CSPG (aggrecan) gradient; format: cell-based, rat; conditions: for neurons extend processes that cross CSPG gradients: peptide added at time of plating
# Protocol: Adult female rat sensory dorsal root ganglion (DRG) neurons were obtained and grown on gradients of the chondroitin sulfate proteoglycan aggrecan as previously described. Glass bottom delta-T time-lapse dishes were coated with Poly-L-Lysine (PLL) and incubated at room temperature overnight. Spots were created by dissolving 2 mg/ml aggrecan in calcium and magnesium free hanks balanced salt solution (HBSS). Eight 2 μl dots were placed into one half of each dish and given ample time to dry onto the glass. The dishes were finally coated in 10 μg/ml laminin for 3 hours at 37° C. Following incubation, six thousand adult dissociated DRG neurons were added to each dish in neural basal-A media supplemented with Glutamax, Penn/strep and B27. […] In this Example, the spot assay was conducted on glass coverslips with a few alterations from the technique used for time-lapse microscopy. Following PLL treatment, the coverslips were dried and coated with a small amount of nitrocellulose to increase adhesive interactions needed for spot formation. Following drying of nitrocellulose, 4 spots were dotted onto each coverslip (one in each quadrant) using 700 μg/ml aggrecan, 5 μg/ml laminin dissolved into HBSS. Following drying, the coverslips were coated in 5 μg/ml laminin at 37 degrees C. for 3 hours. 2,000 adult dissociated dorsal root ganglia neurons were added to each coverslip in neural basal-A media supplemented with Glutamax, Penn/strep and B27. In addition, peptides were added at the required concentration at the time of plating. Cells were allowed to grow for 5 days prior to fixation in 4% Paraformaldehyde. These peptides were ordered from Genscript and dissolved in water and stored long-term at −80° C. Peptides were added to media at time of neuronal plating. After 5 days in vitro, the cells were fixed and stained for mouse anti-B3Tubulin (green). The number of processes completely spanning the gradient were counted and normalized to the number of neuronal cell bodies on each individual spot.
# [6] = system: contusive spinal cord injury in adult female Sprague-Dawley rats; assay: urinary behavior in metabolic cages after spinal cord injury; format: in vivo, rat
# Protocol: as §1, §3
# Animals were placed in metabolic cages overnight for a dark cycle (16 hours). The urine was separated and collected into a syringe linked to a force transducer. The increase in force corresponding to each individual void was plotted in spike-2. The graphs were sampled into excel and manually confirmed to count the total number of voids and the average volume of each void.
# [7] = system: contusive spinal cord injury in adult female Sprague-Dawley rats; assay: recovery beyond vehicle across behaviors after spinal cord injury; format: in vivo, rat
# Protocol: as §1
# Animals were randomly divided into three groups, vehicle control, ISP, or ILP. Lyophilized ISP or ILP peptide was first dissolved in sterile water at a concentration of 2.5 mM. […]
# [8] = system: 5HT expression in the lumbar spinal cord; assay: 5HT expression (axonal density) in lumbar spinal cord after spinal cord injury; format: in vivo, rat
# Protocol: as §1, §2
# For axonal density analysis, the gray matter was outlined and mean pixel intensity was calculated in ImageJ. […] One section selected randomly every 200 μm was analyzed over a total distance of 2 cm […]. […]
# [9] = system: contusive spinal cord injury in adult female Sprague-Dawley rats; assay: terminal urodynamic analyses after spinal cord injury; format: in vivo, rat; conditions: 14 weeks post injury
# Protocol: as §1, with “ILP. […]” for “ILP.”
# In a terminal experiment, animals were anesthetized with Urethane at 14 weeks post injury. […] Both muscle activity and pressure (measured through the catheter) were plotted in spike2.
# [10] = system: growth cones of adult sensory DRG neurons on gradients of CSPG aggrecan; assay: time-lapse microscopy of growth cone motility in CSPG spot assay; format: cell-based, rat; conditions: 4-6 days in vitro
# Protocol: Adult female rat sensory dorsal root ganglion (DRG) neurons were obtained and grown on gradients of the chondroitin sulfate proteoglycan aggrecan as previously described. Glass bottom delta-T time-lapse dishes were coated with Poly-L-Lysine (PLL) and incubated at room temperature overnight. Spots were created by dissolving 2 mg/ml aggrecan in calcium and magnesium free hanks balanced salt solution (HBSS). Eight 2 μl dots were placed into one half of each dish and given ample time to dry onto the glass. The dishes were finally coated in 10 μg/ml laminin for 3 hours at 37° C. Following incubation, six thousand adult dissociated DRG neurons were added to each dish in neural basal-A media supplemented with Glutamax, Penn/strep and B27. The cells were allowed to grow for 4-6 days Immediately prior to the start of time lapse, the delta T dishes were sealed with a glass coverslip. 100× time-lapse microscopy was performed with a heated objective and heated stage to keep the cells at 37 degrees. Images were obtained every 30 seconds and stitched together to create a time lapse movie. Growth cone and filopodial dynamics were tracked and quantified manually with Metamorph.
substance,measurement,setting,value
"DLADNIERLKANDGLKFSQEYESI (listed as Rattus rattus) [wedge domain of LAR, 24 amino acid wedge-shaped helix-loop-helix motif of LAR used in pull-down assays]",binding to sigma,[1],unable to bind to sigma
same,interaction with full length LAR,[2],able to specifically interact with full length LAR
"NH2GRKKRRQRRRCDLADNIERLKANDGLKFSQEYESI-NH2 (H-GRKKRRQRRRCDLADNIERLKANDGLKFSQEYESI-NH2; listed as Homo sapiens) [ILP, LAR wedge domain peptide conjugated to HIV-TAT]",foot faults in the grid walk test versus vehicle,[3],very slight insignificant improvement
same,BBB recovery over the course of the next 10 weeks,[4],recovered only slightly beyond this point
same,neurons extend processes that cross CSPG gradients,[5]; 5 days in vitro,also allows neurons to traverse gradients of CSPG
same,void frequency (absolute),[6]; naïve animals urinate twice per hour,once every two hours
same,volume/void,[6]; versus naïve animals,significantly increased
NH2GRKKRRQRRRCDMAEHMERLKANDSLKLSQEYESI-NH2 [ISP],foot faults made by several individual animals,[3]; several animals,less than 3 foot faults
same,foot faults in the grid walk test versus vehicle,[3],significantly fewer foot faults
same,average BBB score,[4]; 6 weeks,12
same,average BBB score,[4]; 7 weeks,greater than 13
same,BBB recovery over the course of the next 10 weeks,[4],continued to recover
same,BBB score reached by individual animals,[4]; individual animals,19 and 18.5
same,animals that regained at least frequent coordinated stepping,"[4]; rat, in vivo",7 of 15
same,animals with significant behavioral improvements,[7]; greater than two standard deviations better than vehicle mean,13 of 15
same,animals regaining significant function in all three behaviors,"[7]; rat, in vivo",4 animals
same,dose dependence of gradient crossing,[5],dose dependent
same,concentration giving optimal crossing of CSPG gradient,[5]; 5 days in vitro,2.5 μm
same,neurons extend processes that cross CSPG gradients,[5]; 5 days in vitro,allows neurons to extend processes that cross CSPG gradients
same,recovery of void frequency,[6]; 4 or 8 weeks post injury,no significant recovery
same,void frequency,[6]; 12 weeks post injury,significant increase in void frequency
same,animals reaching naïve micturition frequency,"[6]; rat, in vivo",multiple animals reaching normal (naïve) micturition frequency levels
same,increase of post-injury void frequency on average,[6]; versus vehicle,two fold
same,5HT staining throughout the gray matter,"[8]; 14 weeks following spinal cord injury, lumbar spinal cord",dramatic increase
same,quantified 5HT expression throughout the gray matter,[8]; FIG. 15,significantly increased
same,5HT expression in non-responders,[8]; the two ISP non-responders,did not show a dramatic rise
same,coordinated bladder contractions with external urethral sphincter bursting,[9],many animals recovered coordinated bladder contractions with patterned external urethral sphincter bursting
same,axonal stabilization and over adhesion in time-lapse,[10],prevented axonal stabilization and over adhesion
same,growth cones still motile,[10]; 8% in the control condition,65%
"NH2GRKKRRQRRRCIREDDSLMLYALAQEKKESNMHES-NH2 (H-GRKKRRQRRRCIREDDSLMLYALAQEKKESNMHES-NH2; listed as Homo sapiens) [scrambled ISP-TAT peptide, reference compound]",neurons extend processes that cross CSPG gradients,[5]; 5 days in vitro,Neither vehicle control nor the scrambled ISP-TAT peptide allowed neuronal extensions across the gradient
